Experimental data: the Deep4Chem optical property database
Values joined by “and” are separate entries in the source; they are usually repeats but may differ in a detail not shown here. Equal entries are not always repeated.

Assay: photoluminescence quantum yield (fraction); solvent given as SMILES

## COc1ccc(/C=C2\OC(=O)c3cc(N)ccc32)cc1
In CC#N
  photoluminescence quantum yield: 0.38
In CC(C)=O
  photoluminescence quantum yield: 0.21
In CC(C)CO
  photoluminescence quantum yield: 0.44
In CC(C)O
  photoluminescence quantum yield: 0.4
In CCCO
  photoluminescence quantum yield: 0.46
In CCO
  photoluminescence quantum yield: 0.34
In CCOC(C)=O
  photoluminescence quantum yield: 0.2
In CCOCC
  photoluminescence quantum yield: 0.11
In CO
  photoluminescence quantum yield: 0.29

## COc1ccc(-n2nc(C(=O)c3ccc(Cl)cc3)c(N3CCCC3)n2)cc1
In CC#N
  photoluminescence quantum yield: 0.004

## N#CC1=c2c3cccc4cccc(c43)n2[B-](F)(F)[n+]2ccccc21
In C1CCOC1
  photoluminescence quantum yield: 0.86
In CC#N
  photoluminescence quantum yield: 0.96
In CCCCCC
  photoluminescence quantum yield: 0.75
In Cc1ccccc1
  photoluminescence quantum yield: 0.75
In ClCCl
  photoluminescence quantum yield: 0.88

## FC(F)(F)C(F)(F)C(F)(F)c1nc2c(-c3ccsc3)cc3c4cc(-c5ccsc5)c5nc(C(F)(F)C(F)(F)C(F)(F)F)nc6c(-c7ccsc7)cc(c7cc(-c8ccsc8)c(n1)c2c37)c4c56
In C1CCOC1
  photoluminescence quantum yield: 0.62

## O=c1cc2cc(O)c3c(O)ccc4ccc(o1)c2c43
In CC1CCCO1
  photoluminescence quantum yield: 0.52

## c1ccc2cc(-n3c4ccccc4c4ccccc43)ccc2c1
In C1CCCCC1
  photoluminescence quantum yield: 0.48
In CCOC(C)=O
  photoluminescence quantum yield: 0.46
In CO
  photoluminescence quantum yield: 0.32

## Cc1cccc(-c2c3ccccc3c(-c3cccc(C)n3)c3ccccc23)n1
In ClCCl
  photoluminescence quantum yield: 0.77

## Cc1cc(C)c2nc3[nH]c(=O)[nH]c(=O)c3nc2c1
In CC#N
  photoluminescence quantum yield: 0.043

## COc1ccc(/C=C/C2=CC(/C=C/c3ccc(OC)cc3)=[N+]3C2=C(c2ccc(-c4ccc5ccccc5n4)s2)c2c(/C=C/c4ccc(OC)cc4)cc(/C=C/c4ccc(OC)cc4)n2[B-]3(F)F)cc1
In C1COCCO1
  photoluminescence quantum yield: 0.36

## O=c1oc2ccccc2cc1/C=C/c1ccccc1
In CC#N
  photoluminescence quantum yield: 0.61

## CC(C)(C)c1ccc2oc3nc4oc5ccc(-n6c7ccccc7c7cc(-n8c9ccccc9c9ccccc98)ccc76)cc5c4cc3c2c1
In ClC(Cl)Cl
  photoluminescence quantum yield: 0.15

## c1cc2c3c(c1)ccc1[n+]3[B-]3(Oc4cccc5ccc6[n+](c45)[B-](O2)(O3)n2c-6cc3c4ccccc4c4ccccc4c32)n2c-1cc1c3ccccc3c3ccccc3c12
In ClCCl
  photoluminescence quantum yield: 0.89

## C#CCOc1ccc(/C=C/C2=[N+]3C(=C(c4ccc(N(C)C)cc4)c4c(C)cc(C)n4[B-]3(F)F)C(C)=C2)cc1
In CO
  photoluminescence quantum yield: 0.66

## CC(=O)c1ccc2ccc3c(NCCC(=O)NCCCCCCc4nc5c(=O)[nH]c(N)nc5n4[C@H]4C[C@H](O)[C@@H](CO)O4)ccc4ccc1c2c43
In C1CCOC1
  photoluminescence quantum yield: 0.62
In CC#N
  photoluminescence quantum yield: 0.72
In CC(C)O
  photoluminescence quantum yield: 0.58
In CCO
  photoluminescence quantum yield: 0.49
In CN(C)C=O
  photoluminescence quantum yield: 0.63
In CO
  photoluminescence quantum yield: 0.44
In CS(C)=O
  photoluminescence quantum yield: 0.61
In O
  photoluminescence quantum yield: 0.27
In OCC(O)CO
  photoluminescence quantum yield: 0.38

## CC(C)(C)c1cc2c3c(c1)-c1cccc4c1N(B3N1c3ccccc3Sc3cccc-2c31)c1ccccc1S4
In C1CCOC1
  photoluminescence quantum yield: 0.05

## COc1ccc(C2=C(c3ccc(-c4ccccc4)cc3)C(c3ccccc3)=[N+]3C2=Nc2c(-c4ccc(OC)cc4)c(-c4ccc(-c5ccccc5)cc4)c(-c4ccccc4)n2[B-]3(F)F)cc1
In Cc1ccccc1
  photoluminescence quantum yield: 0.01

## N#CC1=CC(C#Cc2ccccc2)=CC(C#N)=P1(c1ccccc1)c1ccccc1
In ClC(Cl)Cl
  photoluminescence quantum yield: 0.61

## C/C(=C\c1ccc(C)cc1)c1nc2ccccc2s1
In C1CCCCC1
  photoluminescence quantum yield: 0.003
In CO
  photoluminescence quantum yield: 0.001

## COc1cc2oc(=O)c3c4ccc(C(=O)c5ccccc5)cc4c4ccc5cccc6c(c1)c2c3c4c56
In C1CCOC1
  photoluminescence quantum yield: 0.448

## CCCCCOc1cc2oc(=O)c3c4ccc(C#N)cc4c4ccc5cccc6c(c1)c2c3c4c56
In C1CCOC1
  photoluminescence quantum yield: 0.499

## CC[n+]1c(C=C2C(=O)C(C=C3N(C)c4ccccc4C3(C)C)=C2[O-])[se]c2ccccc21
In CC(C)O
  photoluminescence quantum yield: 0.11

## N#CC(C#N)=Cc1ccc2nc(C#Cc3ccc(N(c4ccc(C#Cc5nc6ccc(C=C(C#N)C#N)cc6s5)cc4)c4ccc(C#Cc5nc6ccc(C=C(C#N)C#N)cc6s5)cc4)cc3)sc2c1
In Cc1ccccc1
  photoluminescence quantum yield: 0.61

## CCN(CC)c1ccc2cc3ccc(=[N+](CC)CC)cc-3oc2c1
In CC#N
  photoluminescence quantum yield: 0.85
In CCO
  photoluminescence quantum yield: 0.95
In CN(C)C=O
  photoluminescence quantum yield: 0.74
In O
  photoluminescence quantum yield: 0.94

## Cc1ccc(-c2nc3c([nH]2)C2=CC(=O)S[C@]2(C)[C@@]2(C)SC(=O)C=C32)cc1
In CC#N
  photoluminescence quantum yield: 0.14

## COc1ccc(C2=Cc3ccccc3[Si]2(c2ccccc2)c2ccccc2)cc1
In ClCCl
  photoluminescence quantum yield: 0.99

## COc1ccc(-c2cnc(C#Cc3ccccc3)o2)cc1OC
In ClCCl
  photoluminescence quantum yield: 0.49

## Fc1ccc(-[c+]2c3ccccc3sc3ccccc32)cc1
In CC#N
  photoluminescence quantum yield: 0.018

## CNc1cc2nc3cc(Cl)c(Cl)cc3nc2cc1NC
In CCO
  photoluminescence quantum yield: 0.14

## O=C(c1ccc(/C(=C(/c2ccccc2)c2ccc(C(=O)c3ccc(-n4c5ccccc5c5ccccc54)cc3)cc2)c2ccccc2)cc1)c1ccc(-n2c3ccccc3c3ccccc32)cc1
In C1CCOC1
  photoluminescence quantum yield: 0.268

## CC/[NH+]=c1\cc2oc3cc(NCCO)c4ccccc4c3nc-2cc1C
In CCO
  photoluminescence quantum yield: 0.49
In O
  photoluminescence quantum yield: 0.36

## Nc1ccc2c(c1)C(=O)NC2=O
In C1CCOC1
  photoluminescence quantum yield: 0.7 and 1
In C1COCCO1
  photoluminescence quantum yield: 0.73
In CC#N
  photoluminescence quantum yield: 0.63
In CC(C)=O
  photoluminescence quantum yield: 0.68
In CCO
  photoluminescence quantum yield: 0.21
In CN(C)C=O
  photoluminescence quantum yield: 0.91
In ClCCl
  photoluminescence quantum yield: 0.76

## CN(C)c1ccc(/C=C/C=C/C2=NC3C(=O)NC(N)=NC3N2[C@H]2C[C@H](O)[C@@H](CO)O2)cc1 (stereo partly drawn)
In C1COCCO1
  photoluminescence quantum yield: 0.7
In CC#N
  photoluminescence quantum yield: 0.75
In CO
  photoluminescence quantum yield: 0.58

## CCOC(=O)CSc1nc(C)c(CC)c(C#N)c1C#N
In c1ccccc1
  photoluminescence quantum yield: 0.034

## COc1cc(C#Cc2ccccc2)c(C#Cc2ccccc2)cc1OC
In CC#N
  photoluminescence quantum yield: 0.81

## F[B-]1(F)n2c(c(-c3ccccc3)c(-c3cccs3)c2-c2ccccc2)N=C2C(c3ccccc3)=C(c3cccs3)C(c3ccccc3)=[N+]21
In ClCCl
  photoluminescence quantum yield: 0

## CCCCCCCCCC1(CCCCCCCCC)c2cc(C#Cc3ccc(/C=C/c4ccc(N(CCCCCCCC)CCCCCCCC)cc4)cc3)ccc2-c2ccc(C#Cc3ccc(/C=C/c4ccc(N(CCCCCCCC)CCCCCCCC)cc4)cc3)cc21
In Cc1ccccc1
  photoluminescence quantum yield: 0.61

## O=C1C2=C3c4ccsc4C=CN3C(=O)C2=C2c3ccsc3C=CN12
In CN(C)C=O
  photoluminescence quantum yield: 0.73
In ClC(Cl)Cl
  photoluminescence quantum yield: 0.8

## COc1cc(OC)cc(C2=C3C(C)=C(I)C(C)=[N+]3[B-](F)(F)n3c(C)c(I)c(C)c32)c1
In CS(C)=O
  photoluminescence quantum yield: 0.03

## COc1ccc(C2=CC(c3ccc(OC)cc3)=[O+][B-](C(C)=O)(C(C)=O)O2)cc1
In CC#N
  photoluminescence quantum yield: 0.7
In ClC(Cl)(Cl)Cl
  photoluminescence quantum yield: 1

## O=C1OC(=O)c2ccc(N(c3ccccc3)c3ccc4ccccc4c3)c3cccc1c23
In C1CCOC1
  photoluminescence quantum yield: 0.0003
In CCCCCC
  photoluminescence quantum yield: 0.335
In c1ccccc1
  photoluminescence quantum yield: 0.0162

## C(=C\c1c2ccccc2cc2ccccc12)/c1ccc2ccccc2n1
In CC1CCCCC1
  photoluminescence quantum yield: 0.41
In CC#N
  photoluminescence quantum yield: 0.04

## CCNc1cc2oc(=O)c3c(=O)oc4ccccc4c3c2cc1C
In CS(C)=O
  photoluminescence quantum yield: 0.27
In ClCCl
  photoluminescence quantum yield: 0.84

## CCN(CC)c1ccc(/C=C/c2cc(/C=C/c3ccc(N(CC)CC)cc3)nc(N)n2)cc1
In Cc1ccccc1
  photoluminescence quantum yield: 0.72
In ClC(Cl)Cl
  photoluminescence quantum yield: 0.61

## Fc1ccc2sc3nc(-c4ccccc4)sc3c2c1
In CS(C)=O
  photoluminescence quantum yield: 0.91

## c1ccc(-c2cc(-c3nnc(-c4ccc(N5c6ccccc6Oc6ccccc65)cc4)o3)c(-c3ccccc3)c(-c3ccccc3)c2-c2ccccc2)cc1
In Cc1ccccc1
  photoluminescence quantum yield: 0.264
In c1ccc(-n2c(-c3c(-n4c5ccccc5c5ccccc54)cccc3-n3c4ccccc4c4ccccc43)nc3ccccc32)cc1
  photoluminescence quantum yield: 0.93

## COC(=O)c1cc(=O)n(C)c2cc(-c3ccccc3OC)sc12
In CC#N
  photoluminescence quantum yield: 0.61
In ClCCl
  photoluminescence quantum yield: 0.51

## CCCN1c2ccccc2Sc2cc(/C=C\c3cc(=O)oc4ccc(C)cc34)ccc21
In ClC(Cl)Cl
  photoluminescence quantum yield: 0.76

## C=C[Si]1(C)c2ccccc2-c2cc3c(cc21)-c1ccccc1[Si]3(C)C=C (stereo not drawn)
In ClCCl
  photoluminescence quantum yield: 0.5

## CC1=CC(C)=[N+]2C1=Cc1c3ccccc3c(C#Cc3ccccc3)n1[B-]2(F)F
In CCCCCC
  photoluminescence quantum yield: 0.89
In CCCCCCCCO
  photoluminescence quantum yield: 0.88
In CCOC(C)=O
  photoluminescence quantum yield: 0.84
In CN(C)C=O
  photoluminescence quantum yield: 0.6
In ClCCl
  photoluminescence quantum yield: 0.89

## O=c1c2cccc3cccc(c32)c2nc3ccccc3n12
In ClCCl
  photoluminescence quantum yield: 0.71

## COc1ccc(/N=N/c2c(O)c3ccccc3n(C)c2=O)c(S(=O)(=O)O)c1
In CS(C)=O
  photoluminescence quantum yield: 0.03

## COc1ccc(-c2nc(N)nc(C#N)c2C#N)cc1OC
In C1COCCO1
  photoluminescence quantum yield: 0.0073
In CC#N
  photoluminescence quantum yield: 0.0893
In CC(C)=O
  photoluminescence quantum yield: 0.0272
In CCO
  photoluminescence quantum yield: 0.0105
In CCOC(C)=O
  photoluminescence quantum yield: 0.0185
In CO
  photoluminescence quantum yield: 0.0143

## COc1ccc(-c2ccc3c(c2)nnn3C[C@H](N)C(=O)O)cc1
In CO
  photoluminescence quantum yield: 0.17

## CCCCCCCCCCCCC1(CCCCCCCCCCCC)c2cc(-c3ccc(C=C4C(=O)c5ccccc5C4=O)cc3)ccc2-c2ccc(-c3ccc(C=C4C(=O)c5ccccc5C4=O)cc3)cc21
In C1CCOC1
  photoluminescence quantum yield: 0.046
In CC(C)=O
  photoluminescence quantum yield: 0.121
In CCCCCC
  photoluminescence quantum yield: 0.008
In CS(C)=O
  photoluminescence quantum yield: 0.228
In Cc1ccccc1
  photoluminescence quantum yield: 0.012
In ClC(Cl)Cl
  photoluminescence quantum yield: 0.013

## CC(C)CN1C(=O)/C(=C/c2ccc(C#N)cc2)C=C1c1ccccc1
In C1COCCO1
  photoluminescence quantum yield: 0.153

## CC(C)(C)OC(=O)COc1ccc2c(c1)oc(=O)c1c(=O)oc3ccccc3c12
In CS(C)=O
  photoluminescence quantum yield: 0.31
In ClCCl
  photoluminescence quantum yield: 0.008

## O=C([O-])c1ccccc1C1=c2cc3c4c(c2Oc2c1cc1c5c2CCCN5CCC1)CCC[N+]=4CCC3
In CC#N
  photoluminescence quantum yield: 1
In CCO
  photoluminescence quantum yield: 0.98
In CN(C)C=O
  photoluminescence quantum yield: 1
In CO
  photoluminescence quantum yield: 1
In O
  photoluminescence quantum yield: 0.99

## CC(C)(C)c1cc(C(C)(C)C)c(-c2nnc(-c3ccc(-n4c5ccccc5c5ccccc54)cc3)o2)c(C(C)(C)C)c1
In Cc1ccccc1
  photoluminescence quantum yield: 0.62

## F[B-]1(F)n2c(c3ccccc3c2-c2ccccc2)C=C2c3ccccc3C(c3ccccc3)=[N+]21
In C1CCOC1
  photoluminescence quantum yield: 0.57
In ClCCl
  photoluminescence quantum yield: 0.88
